The text below walks through data of ChEMBL document CHEMBL3879908, “Pyrrolidinone carboxamide derivatives” (2014).

A word on the IC50: it is the concentration at which inhibition is half-maximal. A lower IC50 goes with greater potency in that assay.

The experiment concerns the target T1, Chemerin-like receptor 1 (Homo sapiens, UniProt Q99788).
T1 sequence (Q99788 whole entry): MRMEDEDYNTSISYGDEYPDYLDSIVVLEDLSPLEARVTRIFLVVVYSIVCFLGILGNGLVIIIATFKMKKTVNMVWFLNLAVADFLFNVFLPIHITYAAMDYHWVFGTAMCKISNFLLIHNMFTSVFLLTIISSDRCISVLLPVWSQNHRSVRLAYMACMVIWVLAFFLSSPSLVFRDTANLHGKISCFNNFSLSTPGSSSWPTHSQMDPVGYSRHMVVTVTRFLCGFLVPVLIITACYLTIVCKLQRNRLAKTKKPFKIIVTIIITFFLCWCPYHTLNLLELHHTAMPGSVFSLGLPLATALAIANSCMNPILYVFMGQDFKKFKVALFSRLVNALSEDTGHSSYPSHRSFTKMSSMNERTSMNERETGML
The experiment in a line: Displacement of [125I]-chemerin from ChemR23 (unknown origin) transfected in mouse BaF3 cells after 3 hrs by scintillation counting method. Type of experiment: cell-based.
`Cc1cccc(C)c1N1C[C@@](CN2CCCCC2)(C(=O)Nc2cc(C#N)cc(C(F)(F)F)c2)[C@H](C)C1=O`: the IC50 is not above 30 nM. With `Cc1cccc(C)c1N1C[C@@](CN(C)C)(C(=O)Nc2cc(C#N)cc(C(F)(F)F)c2)[C@H](C)C1=O` the figure was not above 30 nM; with `Cc1cccc(C)c1N1C[C@]2(C(=O)Nc3cc(C(F)(F)F)cc(C(F)(F)F)c3)CC=CC[C@@H]2C1=O`, 300 to 6000 nM. For `COCCN(C)C[C@@]1(C(=O)Nc2cc(C(F)(F)F)cc(C(F)(F)F)c2)CN(c2c(C)cccc2C)C(=O)[C@H]1C`, the IC50 lay within 30 to 300 nM. Consider `Cc1cccc(C)c1N1CC2(C(=O)Nc3cc(C(F)(F)F)cc(C(F)(F)F)c3)CC(O)CC2C1=O` (stereo not drawn), for which the IC50 was in the range of 30 to 300 nM. Under `CCc1ccccc1N1CC(C(=O)Nc2cc(C(F)(F)F)cc(C(F)(F)F)c2)CC1=O` (stereo not drawn) stands 30 to 300 nM; under `Cc1cccc(C)c1N1CC2(C(=O)Nc3cc(C(F)(F)F)cc(C(F)(F)F)c3)COCCC2C1=O` (stereo not drawn), 300 to 6000 nM; under `CC(C)C1(C(=O)Nc2cc(C(F)(F)F)cc(C(F)(F)F)c2)CC(=O)N(c2ccccc2CN2CCOCC2)C1` (stereo not drawn), 300 to 6000 nM. Under `Cc1cccc(C)c1N1CC(C(=O)Nc2cccc(C(F)(F)F)c2)CC1=O` (stereo not drawn) stands 300 to 6000 nM.

`Cc1cccc(C)c1N1CC(C(=O)Nc2cc(C(F)(F)F)cc(C(F)(F)F)c2)(C(C)N2CCCC2)CC1=O` (stereo not drawn) had an IC50 of 300 to 6000 nM.

For `Cc1cccc(C)c1N1CC(C(=O)Nc2cc(N3CCCC3)cc(C(F)(F)F)c2)CC1=O` (stereo not drawn), the IC50 was in the range of 30 to 300 nM. On to `Cc1cccc(F)c1N1CC(C(=O)Nc2cccc(Cl)c2)CC1=O` (stereo not drawn), for which the IC50 fell in the range of 300 to 6000 nM.

As to `CCN(CCF)C[C@@]1(C(=O)Nc2cc(C(F)(F)F)cc(C(F)(F)F)c2)CN(c2c(C)cccc2C)C(=O)[C@H]1C`, the IC50 is not above 30 nM.

Turning to `CO[C@H]1CC2C(=O)N(c3c(C)cccc3C)CC2(C(=O)Nc2cc(C(F)(F)F)cc(C(F)(F)F)c2)C1` (stereo partly drawn), the IC50 was not above 30 nM. Under `CCC[C@@]1(C(=O)Nc2cc(C(F)(F)F)cc(C(F)(F)F)c2)CN(c2c(C)cccc2C)C(=O)[C@H]1C` stands not above 30 nM; under `Cc1cccc(C)c1N1C[C@@](CN2CCC(F)(F)C2)(C(=O)Nc2cc(C#N)cc(C(F)(F)F)c2)[C@H](C)C1=O`, not above 30 nM. Compound `Cc1cccc(C)c1N1C[C@@](C(=O)Nc2cc(C(F)(F)F)cc(C(F)(F)F)c2)(C(C)C)[C@H](C)C1=O` gave a 50% inhibitory concentration (IC50) not above 30 nM. Regarding `CCN(C)C[C@@]1(C(=O)Nc2cc(C#N)cc(C(F)(F)F)c2)CN(c2c(C)cccc2C)C(=O)[C@H]1C`, the IC50 was not above 30 nM. With `CCCC1(C(=O)Nc2cc(C(F)(F)F)cc(C(F)(F)F)c2)CC(=O)N(c2c(C)cccc2C)C1` (stereo not drawn) the figure was not above 30 nM. Consider `CCN(C[C@@]1(C(=O)Nc2cc(C#N)cc(C(F)(F)F)c2)CN(c2c(C)cccc2C)C(=O)[C@H]1C)C(C)C`, for which the IC50 was not above 30 nM. With `CC(C)C1(C(=O)Nc2cc(C(F)(F)F)cc(C(F)(F)F)c2)CC(=O)N(c2ccccc2CO)C1` (stereo not drawn) the figure was 300 to 6000 nM; with `Cc1cccc(C)c1N1C[C@@](CN2CCOCC2)(C(=O)Nc2cc(C(F)(F)F)cc(C(F)(F)F)c2)[C@H](C)C1=O`, 300 to 6000 nM; with `CC[C@@]1(C(=O)Nc2cc(N3CCCC3)cc(C(F)(F)F)c2)CN(c2c(C)cccc2C)C(=O)[C@H]1C`, 30 to 300 nM. With `CCN(CC)C[C@@]1(C(=O)Nc2cc(Cl)cc(C(F)(F)F)c2)CN(c2c(C)cccc2C)C(=O)[C@H]1C` the figure was 30 to 300 nM. Consider `Cc1cccc(C)c1N1CC(C(=O)Nc2cc(C(F)(F)F)cc(C(F)(F)F)c2)(C2CCNC2)CC1=O` (stereo not drawn), for which the IC50 is 300 to 6000 nM. Under `Cc1cccc(C)c1N1C[C@@](CN(CCF)CCF)(C(=O)Nc2cc(C(F)(F)F)cc(C(F)(F)F)c2)[C@H](C)C1=O` stands not above 30 nM; under `Cc1cccc(C)c1N1CC(O)(C(=O)Nc2cc(C(F)(F)F)cc(C(F)(F)F)c2)CC1=O` (stereo not drawn), 30 to 300 nM. With `Cc1cccc(C)c1N1C[C@@](CN(C)C(C)C)(C(=O)Nc2cc(C#N)cc(C(F)(F)F)c2)[C@H](C)C1=O` the figure was not above 30 nM; with `CCN(CC)C[C@@]1(C(=O)Nc2cc(C#N)cc(C(F)(F)F)c2)CN(c2c(C)cccc2C)C(=O)[C@H]1C`, not above 30 nM; with `Cc1cccc(C)c1N1C[C@@](CN2CCOCC2)(C(=O)Nc2cc(C3CC3)cc(C(F)(F)F)c2)[C@H](C)C1=O`, 30 to 300 nM. With `Cc1cccc(C)c1N1C[C@@](CN2CCCCC2)(C(=O)Nc2cc(C3CC3)cc(C(F)(F)F)c2)[C@H](C)C1=O` the figure was 30 to 300 nM. As for `Cc1cccc(C)c1N1C[C@@](CN2CCC(F)CC2)(C(=O)Nc2cc(C3CC3)cc(C(F)(F)F)c2)[C@H](C)C1=O`, the IC50 was in the range of 30 to 300 nM. Under `CC[C@@]1(C(=O)Nc2cc(C(F)(F)F)cc(C(F)(F)F)c2)CC(=O)N(c2c(C)cccc2C)C1` stands 30 to 300 nM. Under `CC[C@@]1(C(=O)Nc2cc(C#N)cc(C(F)(F)F)c2)CN(c2c(C)cccc2C)C(=O)[C@H]1C` stands not above 30 nM. Under `Cc1cccc(C)c1N1C[C@@](CN(C)CCF)(C(=O)Nc2cc(C(F)(F)F)cc(C(F)(F)F)c2)[C@H](C)C1=O` stands not above 30 nM. As to `Cc1cccc(C)c1N1CC(C(=O)Nc2cccc(Cl)c2)CC1=O` (stereo not drawn), the IC50 lay in the range of 300 to 6000 nM. With `CCc1cccc(C)c1N1CC(C(=O)Nc2cccc(Cl)c2)CC1=O` (stereo not drawn) the figure was 300 to 6000 nM; with `Cc1cccc(C)c1N1CC2(C(=O)Nc3cc(C(F)(F)F)cc(C(F)(F)F)c3)CCCC2C1=O` (stereo not drawn), not above 30 nM; with `Cc1cccc(C)c1N1CC(CN(C)C)(C(=O)Nc2cc(C(F)(F)F)cc(C(F)(F)F)c2)CC1=O` (stereo not drawn), 30 to 300 nM.

With `Cc1ccccc1N1CC(C(=O)Nc2cc(C(F)(F)F)cc(C(F)(F)F)c2)CC1=O` (stereo not drawn), the IC50 was in the range of 30 to 300 nM. With `Cc1cccc(C)c1N1CC(Cc2ncc[nH]2)(C(=O)Nc2cc(C(F)(F)F)cc(C(F)(F)F)c2)CC1=O` (stereo not drawn) the figure was 30 to 300 nM; with `Cc1cccc(C)c1N1CC2(C(=O)Nc3cc(C(F)(F)F)cc(C(F)(F)F)c3)C[C@H](F)CC2C1=O` (stereo partly drawn), not above 30 nM; with `COCCOc1cc(NC(=O)C2(C(C)C)CC(=O)N(c3c(C)cccc3Br)C2)cc(C(F)(F)F)c1` (stereo not drawn), 300 to 6000 nM. In turn, `Cc1ccc(N2CC(C(=O)Nc3cc(C(F)(F)F)cc(C(F)(F)F)c3)CC2=O)c(C)c1` (stereo not drawn) returned a 50% inhibitory concentration (IC50) of 30 to 300 nM.

`Cc1ccccc1N1CC(C)(C(=O)Nc2cc(C(F)(F)F)cc(C(F)(F)F)c2)CC1=O` (stereo not drawn) showed an IC50 not above 30 nM.

In turn, `CCCCC1(C(=O)Nc2cc(C(F)(F)F)cc(C(F)(F)F)c2)CC(=O)N(c2c(C)cccc2C)C1` (stereo not drawn) registered an IC50 not above 30 nM. With `Cc1cccc(C)c1N1CC(COCc2ccccc2)(C(=O)Nc2cc(C(F)(F)F)cc(C(F)(F)F)c2)CC1=O` (stereo not drawn) the figure was not above 30 nM. Under `CC(C)c1ccccc1N1CC(C(=O)Nc2cc(C(F)(F)F)cc(C(F)(F)F)c2)CC1=O` (stereo not drawn) stands 30 to 300 nM.

As for `Cc1cccc(C)c1N1C[C@@](CN(C)CC(C)C)(C(=O)Nc2cc(C(F)F)cc(C(F)(F)F)c2)[C@H](C)C1=O`, the half-maximal inhibitory concentration (IC50) was not above 30 nM. As to `CCN(CC1CC1)C[C@@]1(C(=O)Nc2cc(C(F)(F)F)cc(C(F)(F)F)c2)CN(c2c(C)cccc2C)C(=O)[C@H]1C`, the IC50 was not above 30 nM. Under `C=CCC1C(=O)N(c2c(C)cccc2C)CC1(CC=C)C(=O)Nc1cc(C(F)(F)F)cc(C(F)(F)F)c1` (stereo not drawn) stands not above 30 nM; under `CCN(CC(F)(F)F)C[C@@]1(C(=O)Nc2cc(C#N)cc(C(F)(F)F)c2)CN(c2c(C)cccc2C)C(=O)[C@H]1C`, not above 30 nM. Under `Cc1cccc(C)c1N1C[C@@](CN(C)C2CCCCC2)(C(=O)Nc2cc(C(F)(F)F)cc(C(F)(F)F)c2)[C@H](C)C1=O` stands not above 30 nM; under `Cc1cccc(C)c1N1C[C@@](CN2CCC2)(C(=O)Nc2cc(C#N)cc(C(F)(F)F)c2)[C@H](C)C1=O`, 30 to 300 nM. `CC(C)C1(C(=O)Nc2cc(C3CC3)cc(C(F)(F)F)c2)CC(=O)N(c2ccccc2Cl)C1` (stereo not drawn): the IC50 fell in the range of 30 to 300 nM.

`Cc1cccc(C)c1N1C[C@]2(C(=O)Nc3cc(C(F)(F)F)cc(C(F)(F)F)c3)CC[C@@H]2C1=O`: the IC50 was not above 30 nM. With `C/C=C/c1ccccc1N1CC(C(=O)Nc2cc(C(F)(F)F)cc(C(F)(F)F)c2)(C(C)C)CC1=O` (stereo not drawn) the figure was 30 to 300 nM. Consider `CCCN(C)C[C@@]1(C(=O)Nc2cc(C(F)(F)F)cc(C(F)(F)F)c2)CN(c2c(C)cccc2C)C(=O)[C@H]1C`, for which the IC50 is not above 30 nM. `Cc1cccc(C)c1N1C[C@]2(C(=O)Nc3cc(C(F)(F)F)cc(C(F)(F)F)c3)OCC[C@@H]2C1=O` had an IC50 of 30 to 300 nM. Under `Cc1cccc(C)c1N1CC(C(=O)Nc2cc(C(F)(F)F)cc(C(F)(F)F)c2)(C2=CCS(=O)(=O)CC2)CC1=O` (stereo not drawn) stands 30 to 300 nM.

In turn, `Cc1cccc(C)c1N1C[C@@](C)(C(=O)Nc2cc(C(F)(F)F)cc(C(F)(F)F)c2)[C@H](C)C1=O` came in with a half-inhibitory concentration (IC50) not above 30 nM.

In turn, `Cc1cccc(C)c1N1CC(NC(C)C)(C(=O)Nc2cc(C(F)(F)F)cc(C(F)(F)F)c2)CC1=O` (stereo not drawn) had an IC50 not above 30 nM. Under `CC[C@@]1(C(=O)Nc2cc(Cl)cc(C#N)c2)CN(c2c(C)cccc2C)C(=O)[C@H]1C` stands 30 to 300 nM; under `Cc1cccc(C)c1N1CC(C(=O)Nc2cc(C(F)(F)F)cc(C(F)(F)F)c2)(N2CCCC2)CC1=O` (stereo not drawn), not above 30 nM; under `Cc1cccc(C)c1N1C[C@@](CN2CCO[C@H](C)C2)(C(=O)Nc2cc(C#N)cc(C(F)(F)F)c2)[C@H](C)C1=O`, 30 to 300 nM. With `Cc1cccc(C)c1N1C[C@@](CN(C)CC2CC2)(C(=O)Nc2cc(C#N)cc(C(F)(F)F)c2)[C@H](C)C1=O` the figure was 30 to 300 nM; with `CC[C@@]1(C(=O)Nc2cc(Cl)cc(C(F)(F)F)c2)CN(c2c(C)cccc2C)C(=O)[C@H]1C`, not above 30 nM; with `Cc1cccc(C)c1N1CC2(C(=O)Nc3cc(C(F)(F)F)cc(C(F)(F)F)c3)C[C@@H](F)CC2C1=O` (stereo partly drawn), 30 to 300 nM.
